The results in this text go back to patent publication US20250002492A1, “COMPOSITIONS OF FOLATE ABSORPTION INHIBITORS AND METHODS THEREOF” (THE TEXAS A&M UNIVERSITY SYSTEM, priority 2023, published 2025).

The subject of the test is C. elegans strain N2. Kind of test: Lifespan assay in worms. The test is classed as in vivo. From the text: The ability of pharmacological or other interventions to extend the lifespan of different organisms is often conserved. For the instant example, the disclosed compounds can be tested for their ability to extend the lifespan of the worm model system Caenorhabditis elegans (N2 strain) [see, e.g., PMID: 19488025]. The organisms can be first exposed to the compounds as adults, 2-3 days after the egg stage until their death, on solid media containing the compounds at the desired concentration. The temperature can be kept constant at 20° C. throughout the assays. The bacteria used as food for the worms (Escherichia coli strain OP-50) can be dead (e.g., killed by lethal doses of ultraviolet radiation) to ensure that any effects on lifespan are not indirect, mediated through bacterial metabolism.
The assays were performed at 20° C. using C. elegans strain N2 and a bacterial strain (OP50) commonly used as food for the worms. Briefly, the assays were performed on solid agar nematode growth media (NGM) plates prepared fresh before each experiment. The bacterial lawn was exposed twice to a UV dose of 120 mJ/cm^2 using a UVC-515 Ultraviolet Multilinker (Ultra-Lum, Inc.). Streaking these UV-exposed bacteria to fresh LB agar plates (1% w/v tryptone, 0.5% w/v yeast extract, 1% w/v sodium chloride) produced no visible colonies. Methotrexate, or the ATIC inhibitor, was first dissolved in DMSO and then added to the media used to prepare the plates after autoclaving (the media were kept in a 50° C. water bath until the plates were poured). Mock-treated control plates contained only DMSO. At the start of each experiment, a sufficient number of eggs were collected from plates without any drugs and then placed on plates containing the indicated doses of each compound tested. After hatching and progression to the adult stage, animals were transferred to new plates (marked as the start of the lifespan assay) containing the drug tested and fluorodeoxyuridine (FUDR; dissolved in water), added at 50 μM to block hatching of new animals. The plates were scored at least every other day until all the worms died. If an animal responded to gentle touch, it was scored as alive, otherwise a death was recorded, and the animal was removed from the plate. Worms were transferred to fresh plates as needed (e.g., if there was evidence of microbial contamination, dryness/cracks on the agar surface, consumption of the bacterial lawn, or hatching of new animals that escaped the FUDR block). The reported lifespans were compiled from several independent experiments done over several months (9-10 months for the methotrexate experiments and 4-5 months for the ATIC inhibitor), each scored by multiple individuals (4-5 persons per experiment). No experiments were excluded from the analysis.

On to `CC(=O)N1CCC(C(=O)N2CCN3C(=O)c4cc(-c5ccccc5)ccc4NC(=O)C3C2)CC1` (stereo not drawn) [MPOL_B_1, 2-(1-acetylpiperidine-4-carbonyl)-8-phenyl-1,3,4,12a-tetrahydrobenzo[e]pyrazino[1,2-a][1,4]diazepine-6,12(2H,11H)-dione], for which the “lifespan effect relative to the effect of methotrexate” value (same worm assay) is reported as 2-3 times. Moreover, under “worms, 50 and 100 μM”, the “extension of maximal lifespan” value is reported as approximately 30% and the “extension of mean lifespan” value is on record as approximately 30%.
